The nature of data set [1]: In vitro transdermal flux, human cadaver skin and Franz diffusion cell. The settings on record: for Flux over the course of about 20 hours: monolithic PIB patch with oil containing CBD/THC 1:1, Franz diffusion cell (FIG. 3). Type of data set: in vitro ADME. The source says:
FIG. 1. In vitro cumulative flux (micrograms/cm^2) of cannabidiol (CBD) through skin versus time (hours).
FIG. 2. In vitro flux of tetrahydrocannabinol (THC) from ethanol/water, at each of the indicated ratios of ethanol/water.
The disclosure provides a graph of transdermal flux (FIG. 3). […] Alternatively, the oil contains CBD/THC in a 1:1 ratio (wt./wt.).
The following concerns reservoir patches. The composition inside the reservoir can have the consistency of a paste, but in an alternative embodiment, it can have the consistency of an oil, or it can have the consistency of a liquid, or it can have the consistency of a slurry. Parameters for FIG. 2 are as follows. Flux was allowed to occur for 24 hours, and FIG. 2 provides the value at 24 hours, […] The layers are 30 cm square and the hydrogel is one cm cubed or one milliliter. The layers have microporous membrane with […] pore size. The layers have occlusive heat seal around edges. There is a protective release liner. The embodiment can be made with or without silicone adhesive.

The conditions of data set [2]: as measured at room temperature; cited from earlier work.

The structures appear in SMILES notation.

Take `C=C(C)[C@@H]1CCC(C)=C[C@H]1c1c(O)cc(CCCCC)cc1O` [CBD, cannabidiol]: in data set [1] (PIB monolithic patch, 15% CBD oil vs 15% crystalline CBD (FIG. 1)), the “Flux of CBD from matrix with hemp oil of 92% CBD relative to adhesive matrix with crystalline CBD” value is “about 5 times”. Moreover, the “Flux over the course of about 20 hours” value in data set [1] (human cadaver skin) is “at least 4 micrograms per cm^2”. For the same molecule, the “Cumulative flux of CBD” value in data set [1] (over ten hours, dermal patch with PIB and about 15% CBD oil, human cadaver skin, Franz diffusion cell) is listed as “at least 20 micrograms CBD per cm^2”.
Take `O=S(=O)(O)CCNC1CCCCC1` [CHES]: the pKa in data set [2] is recorded as 9.5.
For `O=S(=O)(O)CCN1CCN(CCS(=O)(=O)O)CC1` [PIPES], in data set [2], the pKa is given as 6.8.
For the molecule `CCCCCc1cc(O)c2c(c1)OC(C)(C)[C@@H]1CCC(C)=C[C@@H]21` [THC, delta-9-tetrahydrocannabinol], in data set [1] (THC oil mixed with ethanol and with EtOH/water of different ratios), the “THC flux by solvent in reservoir patch” value was “highest flux from pure ethanol”. Moreover, the “Flux over the course of about 20 hours” value in data set [1] (human cadaver skin) was “at least 1.0 micrograms per cm^2”. For the same molecule, in data set [1] (reservoir patch, THC oil mixed with ethanol (FIG. 2)), the “THC flux from ethanol in reservoir patch relative to monolithic patch” value was found to be 4 times. Moreover, the “Cumulative flux of THC” value in data set [1] (reservoir patch, saturated ethanol/water about 60/40 with 25% THC oil, value at 24 hours (FIG. 2)) is reported as “at least 50 micrograms THC per cm^2”.
In the case of `CCCCCCCCCCCCN1CCCCCC1=O` [azone, 1-dodecylazacycloheptane-2-one], the “Effect of enhancer on transdermal delivery of CBD from PIB” value in data set [1] was “double”.
On to `CCCCCCCC/C=C\CCCCCCCC(=O)O` [oleic acid], for which, in data set [1], the “Effect of enhancer on transdermal delivery of CBD from PIB” value was “double”.

A word on the pKa: it is the pH at which an ionisable group is half protonated.
